The source of these data is patent publication US20050058745A1, “Use of Labiatae herb preparations for extending the flavor shelf life of malt beverages” (priority 2003, published 2005).

Data set [1] is described as follows: Trained panel flavor evaluation, commercial Pilsener, forced aging. On the procedure: Separate solutions containing 2% pure rosmarinic acid or pure carnosic acid were prepared by weighing out 500 mg of each compound into separate volumetric flasks and diluting to 25 mL with 100% EtOH.
The beer used in this study was purchased at a local market with a production date of 36 days prior to use. Bottle additions were done as follows: • 1. A bottle of the beer was opened, struck sharply on the top to induce foaming (called “fobbing”), and crowned. The fobbing excludes air. The bottle was swirled and inverted. This sample was designated “No Additions.” • 2. Bottles of beer were opened and an aliquot of either the rosmarinic acid or carnosic acid solutions or a combination of each was added in an amount to give the correct addition rate. The bottle was then fobbed, as above and crowned. It was then swirled and inverted. The samples were designated appropriately to reflect the additive and concentration.
The bottles were placed in a heated room at 40±1° C. in the dark for varying amounts of time. After the allotted aging time, the bottles of beer were transferred to a dark refrigerator and stored at approximately 2° to 4° C. until they were analyzed. Additional bottles from the same code were kept unopened in 2° to 4° C. storage. These unopened samples from the same beer code were labeled “Fresh Control” used to provide fresh samples for the trained panel.
At the appropriate times, a trained 7- or 8-member panel evaluated the beers. In the first study panels, the fresh sample was not identified. Members rated beers for nine attributes that are characteristic for beer: Malt, Yeast, Estery, Hops, Sweet, Stale/Oxidized, Sour/Acid, Solvent (Chemical), and Bitterness. The panel never evaluated more than four beers at a session. The ratings are shown below.

A short description of data set [2]: DCIP redox potential vs CA concentration, light beer. Format: physicochemical. Conditions: 4 hr, 2-4° C. As for the experimental part: The light beer was purchased at a local market and was 2 months old at time of use. Carnosic acid was added via a 1% ethanol solution made with pure CA. The levels of addition were 0, 5, 10, 15 and 20 ppm. The beers were opened, additions made and the beers were fobbed and crowned as described in Example 4. All analyses were done in triplicate using the DCIP method as described in Example 4. The samples were refrigerated for approx. 4 hr before being degassed and analyzed.

Data set [3] is described as follows: Scaling sensory panel for staling, model citrus beverage. Conditions: for Panelist staling Average (0 fresh, 10 most stale): 50 ppm (RA/CA: 50 ppm each). On the procedure: Carbon filtered water was carbonated to 3.5 to 4 times the volume of beer. 59.2 ml of syrup was added to each 355 ml bottle. Each bottle was individually dosed with the treatments listed in Table 22 by adding 1.775 mL of a 1% (weight/volume) solution of carnosol or rosmarinic acid in ethanol to give 50 ppm of each. The bottle was filled to approximately 355 ml with carbonated water before it was capped and inverted. Fresh samples were stored in the refrigerator (0° C.). Heat exposed samples were aged in the oven (32° C.) for seven days. The sensory data were taken in the following manner. Each sample (controls and treatments) was presented to the panelists one time. Panelists rated the beers on a scale of 0-10, with 0 being fresh and 10 being most stale. Panelists were given examples of a fresh and stale material prior to the panel for training on these characteristics. Since the output of the panel as a whole was desired, and not any one individual panelist, the means of each treatment sample in each replicate groups were calculated and tabulated as in Table 24. […] These diluted samples best represent the loss in flavor that occurs when the sample is thermally aged. […] Statistical analysis consisted of doing paired t-Tests on the treatment sample vs. the aged control sample (Table 25). One-tailed tests were used that probed the question whether the […] values of one treatment were lower than that of the other (e.g treatment vs. control). Confidence levels were reported along with p values.

For the compound `CC(C)c1cc2c(c(O)c1O)[C@@]1(C(=O)O)CCCC(C)(C)[C@@H]1CC2` [CA, carnosic acid], the “ranking (normalized sum of preference, 1 most preferred, 4 least preferred)” value came to 2.6 in data set [1] (5 ppm CA, 1 week 40° C.); 2.4 in data set [1] (10 ppm CA, 1 week 40° C.); 2.3 in data set [1] (20 ppm CA, 1 week 40° C.); 2.1 in data set [1] (20 ppm CA, 2 weeks 40° C.). The “Redox Potential” value in data set [2] (5 ppm CA) is on record as 28.1; in data set [2] (10 ppm CA), 40.5; in data set [2] (15 ppm CA), 51.6; in data set [2] (20 ppm CA), 67.4.

As to `O=C(/C=C/c1ccc(O)c(O)c1)O[C@H](Cc1ccc(O)c(O)c1)C(=O)O` [RA, rosmarinic acid], the “Panelist staling Average (0 fresh, 10 most stale)” value in data set [3] (Aged (32° C., seven days)) was determined as 6.17; in data set [3] (Fresh) it was 0.67. In data set [3] (scaling study of staling), the “flavor stabilization in model citrus beverage” value was “not an effect flavor stabilizer”.
